Experimental data reported in ChEMBL document CHEMBL4342498, “Design and Discovery of an Orally Efficacious Spiroindolinone-Based Tankyrase Inhibitor for the Treatment of Colon Cancer” (J Med Chem, 2020).
pIC50: −log10 of the molar value. ≈ marks a conversion by molar mass, not a printed value.

Columns and labels:
Tankyrase 1/2 [1] = target: T1, Tankyrase 1/2 (Homo sapiens, UniProt Q9H2K2+O95271); conditions: hek293
T1 sequence (Q9H2K2 whole entry): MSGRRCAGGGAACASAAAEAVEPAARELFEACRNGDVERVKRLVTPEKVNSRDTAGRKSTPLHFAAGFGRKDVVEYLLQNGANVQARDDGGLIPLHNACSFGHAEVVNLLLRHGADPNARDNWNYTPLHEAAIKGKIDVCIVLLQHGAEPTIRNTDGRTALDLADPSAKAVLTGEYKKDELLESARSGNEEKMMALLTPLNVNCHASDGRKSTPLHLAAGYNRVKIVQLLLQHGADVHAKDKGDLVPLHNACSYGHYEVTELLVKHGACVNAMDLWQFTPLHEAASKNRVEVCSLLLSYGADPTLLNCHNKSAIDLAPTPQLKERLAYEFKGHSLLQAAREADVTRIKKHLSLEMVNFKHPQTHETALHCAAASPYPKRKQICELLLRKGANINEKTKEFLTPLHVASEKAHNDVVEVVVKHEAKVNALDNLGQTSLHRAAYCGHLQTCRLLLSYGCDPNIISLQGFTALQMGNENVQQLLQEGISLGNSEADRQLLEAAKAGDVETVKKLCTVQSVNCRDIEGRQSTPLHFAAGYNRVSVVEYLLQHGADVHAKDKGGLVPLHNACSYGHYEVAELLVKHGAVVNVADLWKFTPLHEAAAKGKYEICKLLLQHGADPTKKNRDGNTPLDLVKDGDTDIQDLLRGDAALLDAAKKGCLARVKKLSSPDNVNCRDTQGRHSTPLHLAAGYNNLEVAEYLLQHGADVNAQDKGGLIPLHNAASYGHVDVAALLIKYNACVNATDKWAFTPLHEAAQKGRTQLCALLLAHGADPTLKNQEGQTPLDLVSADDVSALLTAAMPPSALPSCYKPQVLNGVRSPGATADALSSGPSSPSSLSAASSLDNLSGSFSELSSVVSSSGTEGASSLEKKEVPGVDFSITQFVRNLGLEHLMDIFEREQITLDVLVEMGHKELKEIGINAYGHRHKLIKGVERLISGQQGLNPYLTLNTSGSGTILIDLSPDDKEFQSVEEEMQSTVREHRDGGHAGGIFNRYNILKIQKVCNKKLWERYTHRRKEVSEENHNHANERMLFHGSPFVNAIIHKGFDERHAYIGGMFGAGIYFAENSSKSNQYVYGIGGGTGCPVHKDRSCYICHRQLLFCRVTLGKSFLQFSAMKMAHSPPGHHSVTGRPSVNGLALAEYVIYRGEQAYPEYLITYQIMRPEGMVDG
T1 sequence (O95271 whole entry): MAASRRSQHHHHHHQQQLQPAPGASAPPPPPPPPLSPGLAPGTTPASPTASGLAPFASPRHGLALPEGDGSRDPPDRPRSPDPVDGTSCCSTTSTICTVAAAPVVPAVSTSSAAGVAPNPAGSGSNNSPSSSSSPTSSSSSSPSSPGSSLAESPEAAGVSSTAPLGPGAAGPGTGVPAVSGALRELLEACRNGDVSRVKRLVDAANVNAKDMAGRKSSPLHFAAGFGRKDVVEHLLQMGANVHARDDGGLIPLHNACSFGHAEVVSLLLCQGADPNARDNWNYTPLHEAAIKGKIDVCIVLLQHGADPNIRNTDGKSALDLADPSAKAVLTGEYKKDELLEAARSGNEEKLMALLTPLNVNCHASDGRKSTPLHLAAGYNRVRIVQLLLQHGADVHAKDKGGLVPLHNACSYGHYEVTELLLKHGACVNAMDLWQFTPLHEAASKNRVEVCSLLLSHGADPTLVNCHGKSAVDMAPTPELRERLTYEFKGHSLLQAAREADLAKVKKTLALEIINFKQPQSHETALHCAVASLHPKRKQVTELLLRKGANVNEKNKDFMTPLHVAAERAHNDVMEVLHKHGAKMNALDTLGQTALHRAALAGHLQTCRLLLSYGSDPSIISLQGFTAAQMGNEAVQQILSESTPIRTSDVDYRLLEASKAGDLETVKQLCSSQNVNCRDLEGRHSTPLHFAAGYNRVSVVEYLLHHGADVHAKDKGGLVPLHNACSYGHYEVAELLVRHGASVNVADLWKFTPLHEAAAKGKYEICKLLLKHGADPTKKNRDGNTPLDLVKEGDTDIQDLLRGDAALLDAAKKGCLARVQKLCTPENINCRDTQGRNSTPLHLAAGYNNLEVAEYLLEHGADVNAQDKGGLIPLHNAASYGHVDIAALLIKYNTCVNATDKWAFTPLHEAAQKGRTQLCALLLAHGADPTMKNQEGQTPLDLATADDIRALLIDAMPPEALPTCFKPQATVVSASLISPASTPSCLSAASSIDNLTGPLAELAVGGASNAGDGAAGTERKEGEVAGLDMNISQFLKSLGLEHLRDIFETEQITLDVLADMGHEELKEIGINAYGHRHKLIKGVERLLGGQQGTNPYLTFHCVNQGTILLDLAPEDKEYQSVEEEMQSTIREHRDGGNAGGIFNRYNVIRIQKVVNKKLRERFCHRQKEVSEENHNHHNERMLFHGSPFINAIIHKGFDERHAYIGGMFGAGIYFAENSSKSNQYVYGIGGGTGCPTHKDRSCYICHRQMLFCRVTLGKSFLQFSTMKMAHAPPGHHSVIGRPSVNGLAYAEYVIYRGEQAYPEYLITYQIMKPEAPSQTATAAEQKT
Description: Inhibition of TNKS/TNKS2 (unknown origin) expressed in HEK293 cells assessed as reduction in Wnt-signaling measured after 24 hrs by TCF-luciferase reporter gene assay

[2] = target: T2, Poly [ADP-ribose] polymerase tankyrase-2 (Homo sapiens, UniProt Q9H2K2); experiment: Inhibition of recombinant human N-terminal TEV cleavage site-fused/FLAG-poly his-tagged TNKS2 ARC5-SAM-PARP domain (613 to 1166 residues) expressed in Escherichia coli assessed as reduction in auto-PARylation preincubated for 10 mins followed by biotinylated-NAD+ addition and measured after 45 mins by ELISA
T2 sequence (Q9H2K2 whole entry): T1 sequence (Q9H2K2 whole entry)

physchem = conditions: phosphate buffered saline, pH 7.4
[3] = target: T3, Poly [ADP-ribose] polymerase tankyrase-1 (Homo sapiens, UniProt O95271)
T3 sequence (O95271 whole entry): T1 sequence (O95271 whole entry)
Description: Inhibition of recombinant human N-terminal TEV cleavage site-fused/FLAG-poly his-tagged TNKS SAM-PARP domain (1024 to 1327 residues) expressed in Escherichia coli assessed as reduction in auto-PARylation preincubated for 10 mins followed by biotinylated-NAD+ addition and measured after 45 mins by ELISA

Tankyrase 1/2 [4] = target: T1, Tankyrase 1/2
Description: Inhibition of TNKS/TNKS2 (unknown origin) expressed in human DLD1 cells assessed as reduction in Wnt-signaling measured after 24 hrs by TCF-luciferase reporter gene assay

[5] = Stability in human liver microsomes assessed as parent compound remaining at 1 uM measured after 60 mins in presence of NADPH by LC-MS/MS analysis; assay type: ADME, Microsome; conditions: read-out: Stability
MDR1 = experiment: Efflux ratio of permeability across basolateral to apical side over apical to basolateral side in MDCK2-MDR1 cells; assay type: ADME, cell-based, Canis lupus familiaris; conditions: dog, MDCK-MDR1
COLO 320DM = experiment: Antiproliferative activity against human COLO320DM cells assessed as inhibition of cell growth measured after 4 days by CellTiter-Glo assay; assay type: functional; conditions: 96 h
[6] = Efflux ratio of permeability across basolateral to apical side over apical to basolateral side in MDCK2 cells; assay type: ADME, cell-based, Canis lupus familiaris, MDCK-II; conditions: dog, mdck
[7] = Net efflux ratio of permeability across basolateral to apical side over apical to basolateral side in MDCK2-MDR1 cells to MDCK2 cells; assay type: ADME, cell-based, Canis lupus familiaris; conditions: dog, mdck
[8] = Stability in mouse liver microsomes assessed as parent compound remaining at 1 uM measured after 60 mins in presence of NADPH by LC-MS/MS analysis; assay type: ADME, Microsome; conditions: read-out: Stability

SMILES: CN1CCN(CCOc2cc(F)c3c(c2)N(C)C(=O)C32CCN(c3nc4c(c(=O)[nH]3)CCCN4C)CC2)CC1
- IC50 (Tankyrase 1/2 [1]): 0.0012 µM
- pIC50 [2]: 7.73
- solubility at 1 h, 200 µM (physchem): 188 µg/mL (≈ 348 µM)
- pIC50 [3]: 8.10
- IC50 (Tankyrase 1/2 [4]): 0.0063 µM
- remaining at 1 h, 1 µM [5]: 56.5%
- efflux ratio (MDR1): 86.4
- GI50 (COLO 320DM): 0.74 µM
- efflux ratio [6]: 13.1
- Ratio [7]: 6.6
- remaining at 1 h, 1 µM [8]: 83.5%

SMILES: CN1CCCc2c1nc(N1CCC3(CC1)C(=O)N(CC(F)(F)F)c1cc(F)cc(F)c13)[nH]c2=O
- IC50 (Tankyrase 1/2 [1]): 0.0002 µM
- pIC50 [2]: 7.49
- solubility at 1 h, 200 µM (physchem): 1.3 µg/mL (≈ 2.69 µM)
- pIC50 [3]: 7.79
- IC50 (Tankyrase 1/2 [4]): 0.0024 µM
- remaining at 1 h, 1 µM [5]: 8%
- efflux ratio (MDR1): 2
- GI50 (COLO 320DM): 0.07 µM
- efflux ratio [6]: 0.7
- Ratio [7]: 2.9
- remaining at 1 h, 1 µM [8]: 1%

SMILES: COc1cc(F)c2c(c1)N(C)C(=O)C21CCN(c2nc3c(c(=O)[nH]2)CCCN3C)CC1
- IC50 (Tankyrase 1/2 [1]): 0.0002 µM
- pIC50 [2]: 8.21
- solubility at 1 h, 200 µM (physchem): 4.8 µg/mL (≈ 11.2 µM)
- pIC50 [3]: 8.36
- IC50 (Tankyrase 1/2 [4]): 0.0045 µM
- remaining at 1 h, 1 µM [5]: 1.9%
- efflux ratio (MDR1): 2.7
- GI50 (COLO 320DM): 0.13 µM
- efflux ratio [6]: 1.1
- Ratio [7]: 2.5
- remaining at 1 h, 1 µM [8]: 0%

SMILES: CN(C)c1cc(F)c2c(c1)N(C)C(=O)C21CCN(c2nc3c(c(=O)[nH]2)CCCN3C)CC1
- IC50 (Tankyrase 1/2 [1]): 0.0046 µM
- pIC50 [2]: 7.89
- solubility at 1 h, 200 µM (physchem): 7.4 µg/mL (≈ 16.8 µM)
- pIC50 [3]: 8.20
- IC50 (Tankyrase 1/2 [4]): 0.0207 µM
- remaining at 1 h, 1 µM [5]: 1.8%
- efflux ratio (MDR1): 2.7
- GI50 (COLO 320DM): 1.17 µM
- efflux ratio [6]: 1.1
- Ratio [7]: 2.5
- remaining at 1 h, 1 µM [8]: 1.8%

SMILES: CN1CCCc2c1nc(N1CCC3(CC1)C(=O)N(C)c1cc(OCCN4CCCCC4)cc(F)c13)[nH]c2=O
- IC50 (Tankyrase 1/2 [1]): 0.0025 µM
- pIC50 [2]: 7.48
- solubility at 1 h, 200 µM (physchem): 101 µg/mL (≈ 192 µM)
- pIC50 [3]: 7.92
- IC50 (Tankyrase 1/2 [4]): 0.005 µM
- remaining at 1 h, 1 µM [5]: 18.5%
- efflux ratio (MDR1): 6.1
- GI50 (COLO 320DM): 1.09 µM
- efflux ratio [6]: 3.2
- Ratio [7]: 1.9
- remaining at 1 h, 1 µM [8]: 56%

SMILES: CN1CCCc2c1nc(N1CCC3(CC1)C(=O)N(CC(O)CO)c1cc(F)cc(F)c13)[nH]c2=O (stereo unspecified)
- IC50 (Tankyrase 1/2 [1]): 0.0007 µM
- pIC50 [2]: 7.90
- solubility at 1 h, 200 µM (physchem): 88.2 µg/mL (≈ 185 µM)
- pIC50 [3]: 8.05
- IC50 (Tankyrase 1/2 [4]): 0.0145 µM
- remaining at 1 h, 1 µM [5]: 23.9%
- efflux ratio (MDR1): 43.7
- GI50 (COLO 320DM): 0.71 µM
- efflux ratio [6]: 11.2
- Ratio [7]: 3.9
- remaining at 1 h, 1 µM [8]: 42.7%
